In patent publication US10175228B2, “Method of using transmembrane channel-like protein 6 (TMC6) protein to identify substances affecting salty taste” (priority 2016, dated 2019):

Test system: Pongo abelii TMC6 protein
Test: Calcium imaging of CHO-K1 cells expressing the Pongo abelii TMC6 gene
Format: cell-based
Conditions: stimulation with high-concentration NaCl solution for 60 sec, 31 cells
Excerpt: CHO-K1 cells were transfected with Macaca mulatta TMC6-2A-YC260TM in pcDNA3.1(−), Pongo abelii TMC6-2A-YC260TM in pcDNA3.1(−), Mouse-Aotus nancymaae chimera TMC6 2A-YC260TM in pcDNA3.1(−), or YC2.60-pcDNA, to prepare TMC6-expressing cells (cells expressing the Macaca mulatta TMC6 gene, the Pongo abelii TMC6 gene, or the mouse/Aotus nancymaae chimeric TMC6 gene, in combination with the YC2.60 gene) and control cells (cells expressing the YC2.60 gene). The prepared cells were stimulated, and activation of the cells was measured. The procedure was as follows.
First, a plurality of sterile cover glasses (18×32 mm, Matsunami Glass) were placed at the bottom of a culture dish having a diameter of 100 mm so as not to be overlapped to each other. CHO-K1 cells (ATCC) were inoculated thereto while adjusting the number of the cells to obtain 60% confluence, and cultured for 24 hr. Then, medium exchange was carried out. As the medium, 12 mL of Ham's F-12K (Kaighn's) (Life Technologies) containing 10% fetal bovine serum (Life Technologies) was used. […]
Change of the intracellular calcium concentration was measured and analyzed with analysis software equipped with FV1200. An average YFP/CFP value of all the cell of which the YFP/CFP value was changed by stimulation with the ATP stimulation solution was calculated at each measurement. […]

[Cl-].[Na+] [NaCl, sodium chloride]
change of average YFP/CFP value (intracellular calcium concentration): increase
